Reference: patent US7598046B2 (priority 2003, dated 2009)
Where two headings read alike, the source gives them in different places.

System: PrP^Sc (conversion of PrP^C into PrP^Sc)
Format: biochemical, hamster
Conditions: for prion replication in vitro (PMCA signal): 30 min at 4° C., without cyclodextrin, 3200-fold and 12800-fold dilutions of scrapie brain homogenate

Apolipoprotein B
prion replication in vitro (PMCA signal) (8 and 16 μg hApo B): increase

Apolipoprotein E
prion replication in vitro (PMCA signal) (1 and 10 μg hApo E): increase

methyl-β-cyclodextrin
prion replication (PrP^Sc signal after PMCA): complete inhibition observed or not (5 mM methyl-β-cyclodextrin, normal brain homogenate treated 30 min, 10 cycles of PMCA, Western blot after PK): not
prion replication (PrP^Sc signal after PMCA) (10 mM methyl-β-cyclodextrin, normal brain homogenate treated 30 min, 10 cycles of PMCA, Western blot after PK): complete inhibition
prion replication (PrP^Sc signal after PMCA) (20 mM methyl-β-cyclodextrin, normal brain homogenate treated 30 min, 10 cycles of PMCA, Western blot after PK): complete inhibition
